# Entries after “also recorded” stand apart in the source; their conditions may differ.
# What was measured:
# [1] = variable-temperature powder X-ray diffraction, crystal form stability at high temperatures; format: physicochemical; conditions: heated from 30° C. to 80° C.; powder X-ray diffraction at 35, 45, 55, 65 and 75° C.
# Description: The crystalline form I of (R)-4-hydroxy-2-oxo-1-pyrrolidineacetamide of the invention was placed on a single crystal silicon sample stage, heated from 30° C. to 80° C., and subjected to powder X-ray diffraction measurement at 35° C., 45° C., 55° C., 65° C. and 75° C., respectively. […] It can be seen that the crystalline form I of (R)-4-hydroxy-2-oxo-1-pyrrolidineacetamide of the invention has good stability at high temperatures. When the crystalline form I of (R)-4-hydroxy-2-oxo-1-pyrrolidineacetamide of the invention is used for storage or formulation processing, the requirements on processing and storage temperatures are reduced.
# [2] = solubility in water; format: physicochemical
smiles,measurement,setting,value
"NC(=O)CN1C[C@H](O)CC1=O [crystalline form I, (R)-4-hydroxy-2-oxo-1-pyrrolidineacetamide]",crystal transformation on heating (stability at high temperatures),[1],does not show a phenomenon of crystal transformation; also recorded: does not exhibit crystal transformation phenomenon
same,solubility,[2],≥ 90 mg/mL

# Source: patent publication US10556863B1, “Crystalline form of (R)-4-hydroxy-2-oxo-1-pyrrolidineacetamide, preparation method therefor and use thereof” (CHONGQING RUNZE PHARMACEUTICAL COMPANY LIMITED, priority 2016, dated 2020)
